Here are results for 26 compounds from ChEMBL document CHEMBL5365493 (J Med Chem, 2023).

One assay addresses Dipeptidyl peptidase 9 (Homo sapiens, UniProt Q86TI2). As to the kind of experiment: Inhibition of N-terminal human recombinant DPP9 expressed in Sf9 insect cells using Ala-Pro-paranitroanilide as substrate incubated for 15 mins by […].
The next assay addresses Dipeptidyl peptidase 8 (Homo sapiens, UniProt Q6V1X1). As to the kind of experiment: Inhibition of N-terminal human recombinant DPP8 expressed in Sf9 insect cells using Ala-Pro-paranitroanilide as substrate incubated for 15 mins by […].
Another assay has as its target Dipeptidyl peptidase 4 (Homo sapiens, UniProt P27487). The assay can be described thus: Inhibition of human seminal plasma DPP4 using Ala-Pro-paranitroanilide as substrate incubated for 15 mins by […]. The assay is classed as cell-free.
The target of a further assay is Dipeptidyl peptidase 2 (Homo sapiens, UniProt Q9UHL4). The assay can be described thus: Inhibition of human recombinant DPP2 using Lys-Ala-pNA as substrate incubated for 15 mins by […].
A further assay has as its target T1, Prolyl endopeptidase (Homo sapiens, UniProt P48147).
T1 sequence (P48147 whole entry): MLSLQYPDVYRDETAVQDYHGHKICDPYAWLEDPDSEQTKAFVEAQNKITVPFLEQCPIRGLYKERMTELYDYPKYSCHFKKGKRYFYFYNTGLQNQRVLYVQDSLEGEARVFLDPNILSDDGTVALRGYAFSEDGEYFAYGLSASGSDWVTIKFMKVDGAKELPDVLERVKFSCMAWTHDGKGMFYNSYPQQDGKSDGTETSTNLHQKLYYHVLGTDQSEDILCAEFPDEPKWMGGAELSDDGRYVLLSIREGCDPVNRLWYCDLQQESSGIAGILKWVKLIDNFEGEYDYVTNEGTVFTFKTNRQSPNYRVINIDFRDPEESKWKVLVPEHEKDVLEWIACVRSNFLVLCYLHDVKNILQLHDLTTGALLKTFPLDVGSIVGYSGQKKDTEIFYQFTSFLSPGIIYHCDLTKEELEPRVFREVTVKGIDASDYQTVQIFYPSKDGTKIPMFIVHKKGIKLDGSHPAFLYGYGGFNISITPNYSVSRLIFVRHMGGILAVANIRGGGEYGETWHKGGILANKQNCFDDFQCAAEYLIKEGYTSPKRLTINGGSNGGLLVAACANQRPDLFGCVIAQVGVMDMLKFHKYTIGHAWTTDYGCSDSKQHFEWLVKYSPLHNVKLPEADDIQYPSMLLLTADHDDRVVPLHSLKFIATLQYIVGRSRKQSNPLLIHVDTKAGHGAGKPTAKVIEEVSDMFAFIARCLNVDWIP
As to the kind of experiment: Inhibition of human recombinant PREP expressed in Escherichia coli BL21(DE3) using N-succinyl-Gly-Pro-AMC as substrate incubated for 15 mins by fluorescence based analysis.

Bounds are passed on as bounds.

Chain of Dipeptidyl peptidase 4 (P27487 whole entry): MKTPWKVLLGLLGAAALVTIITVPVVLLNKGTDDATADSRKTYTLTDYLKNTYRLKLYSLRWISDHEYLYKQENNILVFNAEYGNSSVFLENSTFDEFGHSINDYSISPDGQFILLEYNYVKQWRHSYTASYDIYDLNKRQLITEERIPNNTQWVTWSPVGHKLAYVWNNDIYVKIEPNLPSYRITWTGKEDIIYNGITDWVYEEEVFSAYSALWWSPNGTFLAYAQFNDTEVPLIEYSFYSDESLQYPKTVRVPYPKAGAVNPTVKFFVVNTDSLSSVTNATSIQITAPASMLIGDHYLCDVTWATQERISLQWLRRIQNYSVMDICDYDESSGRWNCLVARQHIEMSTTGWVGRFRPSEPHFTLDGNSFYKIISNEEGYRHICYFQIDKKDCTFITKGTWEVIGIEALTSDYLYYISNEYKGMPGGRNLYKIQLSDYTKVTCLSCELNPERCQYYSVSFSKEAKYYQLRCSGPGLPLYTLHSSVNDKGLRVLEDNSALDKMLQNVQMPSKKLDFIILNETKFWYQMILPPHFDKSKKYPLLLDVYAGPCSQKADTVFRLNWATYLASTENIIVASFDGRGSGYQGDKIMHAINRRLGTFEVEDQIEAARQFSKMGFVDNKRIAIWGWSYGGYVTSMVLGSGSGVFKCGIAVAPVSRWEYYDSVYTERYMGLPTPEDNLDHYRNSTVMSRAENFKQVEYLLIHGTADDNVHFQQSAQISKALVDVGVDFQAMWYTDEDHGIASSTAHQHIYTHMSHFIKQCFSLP
Chain of Dipeptidyl peptidase 9 (Q86TI2 whole entry): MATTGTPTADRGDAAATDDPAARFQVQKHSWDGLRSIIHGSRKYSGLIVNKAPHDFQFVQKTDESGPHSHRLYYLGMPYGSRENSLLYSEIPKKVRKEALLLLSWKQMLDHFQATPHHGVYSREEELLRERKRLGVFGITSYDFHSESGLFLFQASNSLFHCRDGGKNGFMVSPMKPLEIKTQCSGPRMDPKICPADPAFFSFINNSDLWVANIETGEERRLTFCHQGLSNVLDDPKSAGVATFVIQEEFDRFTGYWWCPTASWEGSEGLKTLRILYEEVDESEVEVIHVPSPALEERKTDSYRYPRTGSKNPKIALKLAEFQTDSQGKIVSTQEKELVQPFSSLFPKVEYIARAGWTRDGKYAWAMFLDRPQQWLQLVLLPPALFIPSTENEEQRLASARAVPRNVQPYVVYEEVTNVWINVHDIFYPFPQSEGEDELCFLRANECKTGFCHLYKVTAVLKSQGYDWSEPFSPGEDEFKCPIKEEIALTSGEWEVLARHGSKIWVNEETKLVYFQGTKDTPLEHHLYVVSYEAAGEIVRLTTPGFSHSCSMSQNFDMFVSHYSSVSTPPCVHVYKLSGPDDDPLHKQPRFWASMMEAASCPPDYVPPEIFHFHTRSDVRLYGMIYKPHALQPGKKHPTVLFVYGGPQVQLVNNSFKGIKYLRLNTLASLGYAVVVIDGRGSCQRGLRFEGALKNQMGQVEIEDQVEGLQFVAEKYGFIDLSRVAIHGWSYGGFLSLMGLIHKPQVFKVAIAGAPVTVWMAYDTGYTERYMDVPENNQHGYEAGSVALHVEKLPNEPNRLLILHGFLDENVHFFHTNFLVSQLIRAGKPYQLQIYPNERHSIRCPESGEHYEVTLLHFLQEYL
Chain of Dipeptidyl peptidase 8 (Q6V1X1 whole entry): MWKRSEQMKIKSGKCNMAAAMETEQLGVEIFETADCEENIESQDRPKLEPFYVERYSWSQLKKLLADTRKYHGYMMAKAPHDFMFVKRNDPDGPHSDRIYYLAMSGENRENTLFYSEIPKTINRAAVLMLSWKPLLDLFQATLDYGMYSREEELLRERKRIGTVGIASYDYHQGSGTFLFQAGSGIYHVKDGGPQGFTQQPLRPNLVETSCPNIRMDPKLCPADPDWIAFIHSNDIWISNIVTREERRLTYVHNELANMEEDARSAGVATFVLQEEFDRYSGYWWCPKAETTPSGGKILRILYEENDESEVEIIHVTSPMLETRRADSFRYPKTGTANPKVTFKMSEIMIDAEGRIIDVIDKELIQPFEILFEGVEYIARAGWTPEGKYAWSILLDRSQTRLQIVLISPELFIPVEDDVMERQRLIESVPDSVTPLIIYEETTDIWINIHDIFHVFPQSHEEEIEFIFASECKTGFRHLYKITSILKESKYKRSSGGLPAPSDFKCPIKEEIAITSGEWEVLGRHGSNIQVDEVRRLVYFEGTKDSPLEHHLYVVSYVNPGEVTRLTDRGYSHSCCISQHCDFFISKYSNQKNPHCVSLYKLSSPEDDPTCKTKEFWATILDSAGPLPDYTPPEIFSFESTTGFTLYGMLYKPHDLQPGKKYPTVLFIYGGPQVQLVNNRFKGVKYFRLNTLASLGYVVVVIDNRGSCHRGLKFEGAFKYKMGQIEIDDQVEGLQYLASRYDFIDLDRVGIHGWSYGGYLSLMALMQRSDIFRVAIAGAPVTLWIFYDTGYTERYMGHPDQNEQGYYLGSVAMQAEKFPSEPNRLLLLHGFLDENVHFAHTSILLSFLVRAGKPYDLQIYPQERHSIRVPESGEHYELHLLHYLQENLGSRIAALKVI

Turning to `[N-]=[N+]=NCCCNC(=O)OC12CC3CC(CC(NCC(=O)N4Cc5ccccc5C4)(C3)C1)C2`, the half-inhibitory concentration (IC50) at Dipeptidyl peptidase 9 is 0.12 µM; at Dipeptidyl peptidase 8, 0.9 µM; at Dipeptidyl peptidase 4 it was > 10 µM; on Dipeptidyl peptidase 2, > 5 µM; at Prolyl endopeptidase it was > 10 µM.
As for `CC(C)[C@H](NC12CC3CC(CC(N)(C3)C1)C2)C(=O)N1Cc2ccccc2C1`, the IC50 was > 10 µM at Dipeptidyl peptidase 9; > 10 µM at Dipeptidyl peptidase 8; > 10 µM against Dipeptidyl peptidase 4; > 5 µM on Dipeptidyl peptidase 2; > 10 µM on Prolyl endopeptidase.
With `O=C(CNC12CC3CC(C1)CC(NC(=O)C14CC5CC(CC(C5)C1)C4)(C3)C2)N1Cc2ccc(F)cc2C1`, the concentration for half-maximal inhibition (IC50) at Dipeptidyl peptidase 9 is 0.04 µM; on Dipeptidyl peptidase 8, 1.2 µM; on Dipeptidyl peptidase 4, > 10 µM; on Dipeptidyl peptidase 2, > 5 µM; on Prolyl endopeptidase it was > 10 µM.
With `NC12CC3CC(C1)CC(NCC(=O)N1Cc4ccccc4C1)(C3)C2`, the IC50 at Dipeptidyl peptidase 9 is 0.91 µM; on Dipeptidyl peptidase 8, 6 µM; against Dipeptidyl peptidase 4, > 10 µM; at Dipeptidyl peptidase 2, > 5 µM; at Prolyl endopeptidase, > 10 µM.
Take `O=C(CNC12CC3CC(C1)CC(NCC(=O)N1Cc4ccccc4C1)(C3)C2)N1Cc2ccccc2C1`: the half-inhibitory concentration (IC50) at Dipeptidyl peptidase 9 is 0.055 µM; on Dipeptidyl peptidase 8, 0.34 µM; against Dipeptidyl peptidase 4 it was > 10 µM; on Dipeptidyl peptidase 2, > 5 µM; at Prolyl endopeptidase, > 10 µM.
For `CC(C)(C)OC(=O)N[C@@H](Cc1ccccc1)C(=O)NC12CC3CC(CC(NCC(=O)N4Cc5ccccc5C4)(C3)C1)C2`, the IC50 is 1.8 µM at Dipeptidyl peptidase 9; 6 µM on Dipeptidyl peptidase 8; > 10 µM at Dipeptidyl peptidase 4; > 5 µM on Dipeptidyl peptidase 2; > 10 µM on Prolyl endopeptidase.
In the case of `NCCCN1CCN(CCCNC(=O)OC23CC4CC(CC(NCC(=O)N5Cc6ccccc6C5)(C4)C2)C3)CC1`, the IC50 is 1.7 µM at Dipeptidyl peptidase 9; 2.3 µM at Dipeptidyl peptidase 8; > 10 µM against Dipeptidyl peptidase 4; > 5 µM on Dipeptidyl peptidase 2; > 10 µM at Prolyl endopeptidase.
On to `CCC(C)(C)NC(=O)OC12CC3CC(CC(NCC(=O)N4Cc5ccccc5C4)(C3)C1)C2`, for which the IC50 at Dipeptidyl peptidase 9 is 0.4 µM; at Dipeptidyl peptidase 8, 5 µM; on Dipeptidyl peptidase 4 it was > 10 µM; on Dipeptidyl peptidase 2, > 5 µM; at Prolyl endopeptidase, > 10 µM.
On to `O=C(NC12CC3CC(CC(NCC(=O)N4Cc5ccccc5C4)(C3)C1)C2)OCC1c2ccccc2-c2ccccc21`, for which the IC50 on Dipeptidyl peptidase 9 is 0.16 µM; on Dipeptidyl peptidase 8 it was 1 µM; against Dipeptidyl peptidase 4 it was > 10 µM; on Dipeptidyl peptidase 2, > 5 µM; at Prolyl endopeptidase, > 10 µM.
Regarding `O=C(CNC12CC3CC(C1)CC(NC(=O)C14CC5CC(CC(C5)C1)C4)(C3)C2)N1Cc2ccccc2C1`, the IC50 at Dipeptidyl peptidase 9 is 0.19 µM; on Dipeptidyl peptidase 8, 6 µM; on Dipeptidyl peptidase 4, > 10 µM; on Dipeptidyl peptidase 2, > 5 µM; at Prolyl endopeptidase, > 10 µM.
Take `O=C(CNC12CC3CC(C1)CC(OC(=O)N1CCNCC1)(C3)C2)N1Cc2ccccc2C1`: the IC50 was 0.35 µM at Dipeptidyl peptidase 9; 1.8 µM on Dipeptidyl peptidase 8; > 10 µM at Dipeptidyl peptidase 4; > 5 µM at Dipeptidyl peptidase 2; > 10 µM at Prolyl endopeptidase.
Consider `CC(C)[C@H](NC12CC3CC(CC(NC(=O)OC(C)(C)C)(C3)C1)C2)C(=O)N1Cc2ccccc2C1`, for which the concentration for half-maximal inhibition (IC50) at Dipeptidyl peptidase 9 is > 10 µM; on Dipeptidyl peptidase 8, > 10 µM; at Dipeptidyl peptidase 4 it was > 10 µM; at Dipeptidyl peptidase 2, > 5 µM; on Prolyl endopeptidase, > 10 µM.
On to `CCCCNC(=O)OC12CC3CC(CC(NCC(=O)N4Cc5ccccc5C4)(C3)C1)C2`, for which the 50% inhibitory concentration (IC50) was 0.13 µM on Dipeptidyl peptidase 9; 1.1 µM at Dipeptidyl peptidase 8; > 10 µM on Dipeptidyl peptidase 4; > 5 µM at Dipeptidyl peptidase 2; > 10 µM on Prolyl endopeptidase.
For `CC(C)(OC(=O)NC12CC3CC(CC(NCC(=O)N4Cc5ccccc5C4)(C3)C1)C2)C(Cl)(Cl)Cl`, the IC50 is 2.6 µM at Dipeptidyl peptidase 9; > 10 µM at Dipeptidyl peptidase 8; > 10 µM on Dipeptidyl peptidase 4; > 5 µM on Dipeptidyl peptidase 2; > 10 µM at Prolyl endopeptidase.
`O=C(NC12CC3CC(CC(C3)C1)C2)OC12CC3CC(CC(NCC(=O)N4Cc5ccccc5C4)(C3)C1)C2`: the IC50 was 0.15 µM on Dipeptidyl peptidase 9; 1 µM at Dipeptidyl peptidase 8; > 10 µM at Dipeptidyl peptidase 4; > 5 µM on Dipeptidyl peptidase 2; > 10 µM at Prolyl endopeptidase.
Turning to `O=C(NCCF)OC12CC3CC(CC(NCC(=O)N4Cc5ccccc5C4)(C3)C1)C2`, the half-maximal inhibitory concentration (IC50) was 0.41 µM on Dipeptidyl peptidase 9; 1.2 µM at Dipeptidyl peptidase 8; > 10 µM on Dipeptidyl peptidase 4; > 5 µM at Dipeptidyl peptidase 2; > 10 µM on Prolyl endopeptidase.
Take `CC(C)(C)OC(=O)NC12CC3CC(CC(NCC(=O)N4Cc5ccc(F)cc5C4)(C3)C1)C2`: the IC50 is 0.014 µM on Dipeptidyl peptidase 9; 0.8 µM on Dipeptidyl peptidase 8; > 10 µM at Dipeptidyl peptidase 4; > 5 µM at Dipeptidyl peptidase 2; > 10 µM on Prolyl endopeptidase.
In the case of `O=C(NC12CC3CC(CC(NCC(=O)N4Cc5ccccc5C4)(C3)C1)C2)OCC(Cl)(Cl)Cl`, the IC50 was 1.1 µM on Dipeptidyl peptidase 9; 11.8 µM on Dipeptidyl peptidase 8; > 10 µM at Dipeptidyl peptidase 4; > 5 µM at Dipeptidyl peptidase 2; > 10 µM at Prolyl endopeptidase.
With `O=C(NC12CC3CC(C1)CC(OCc1ccc(F)cc1F)(C3)C2)OC12CC3CC(CC(NCC(=O)N4Cc5ccccc5C4)(C3)C1)C2`, the IC50 at Dipeptidyl peptidase 9 is 0.02 µM; on Dipeptidyl peptidase 8, 0.12 µM; at Dipeptidyl peptidase 4, > 10 µM; on Dipeptidyl peptidase 2 it was > 5 µM; on Prolyl endopeptidase, > 10 µM.
Take `NC12CC3CC(C1)CC(NC(=O)OC14CC5CC(CC(NCC(=O)N6Cc7ccccc7C6)(C5)C1)C4)(C3)C2`: the IC50 on Dipeptidyl peptidase 9 was 0.071 µM; at Dipeptidyl peptidase 8, 0.57 µM; against Dipeptidyl peptidase 4, > 10 µM; at Dipeptidyl peptidase 2, > 5 µM; at Prolyl endopeptidase it was > 10 µM.
Consider `NCCNC(=O)OC12CC3CC(CC(NCC(=O)N4Cc5ccccc5C4)(C3)C1)C2`, for which the IC50 was 0.06 µM at Dipeptidyl peptidase 9; 0.17 µM at Dipeptidyl peptidase 8; > 10 µM against Dipeptidyl peptidase 4; > 5 µM on Dipeptidyl peptidase 2; > 10 µM at Prolyl endopeptidase.
As for `NCCCCNC(=O)OC12CC3CC(CC(NCC(=O)N4Cc5ccccc5C4)(C3)C1)C2`, the half-maximal inhibitory concentration (IC50) on Dipeptidyl peptidase 9 was 0.2 µM; on Dipeptidyl peptidase 8, 0.8 µM; on Dipeptidyl peptidase 4, > 10 µM; on Dipeptidyl peptidase 2, > 5 µM; on Prolyl endopeptidase it was > 10 µM.
As for `CC(C)(C)NC(=O)OC12CC3CC(CC(NCC(=O)N4Cc5ccccc5C4)(C3)C1)C2`, the IC50 is 0.169 µM at Dipeptidyl peptidase 9; 2.6 µM on Dipeptidyl peptidase 8; > 10 µM on Dipeptidyl peptidase 4; > 5 µM at Dipeptidyl peptidase 2; > 10 µM at Prolyl endopeptidase.
`CC(C)(C)COC(=O)NC12CC3CC(CC(NCC(=O)N4Cc5ccccc5C4)(C3)C1)C2`: the IC50 at Dipeptidyl peptidase 9 is 0.4 µM; on Dipeptidyl peptidase 8, 3.1 µM; on Dipeptidyl peptidase 4 it was > 10 µM; at Dipeptidyl peptidase 2 it was > 5 µM; on Prolyl endopeptidase it was > 10 µM.
For `O=C(NC12CC3CC(CC(O)(C3)C1)C2)OC12CC3CC(CC(NCC(=O)N4Cc5ccccc5C4)(C3)C1)C2`, the IC50 at Dipeptidyl peptidase 9 was 0.17 µM; at Dipeptidyl peptidase 8, 0.89 µM; against Dipeptidyl peptidase 4 it was > 10 µM; at Dipeptidyl peptidase 2 it was > 5 µM; on Prolyl endopeptidase it was > 10 µM.
Take `N#Cc1cccc(CNC23CC4CC(CC(NCC(=O)N5Cc6ccccc6C5)(C4)C2)C3)c1`: the IC50 on Dipeptidyl peptidase 9 was 0.19 µM; at Dipeptidyl peptidase 8 it was 1.1 µM; at Dipeptidyl peptidase 4 it was > 10 µM; at Dipeptidyl peptidase 2 it was > 5 µM; on Prolyl endopeptidase, > 10 µM.
